Patent US20080125467A1, “Amino-Containing Compounds Which Inhibit Memapsin 2 Beta-Secretase Activity and Methods of Use Thereof” (priority 2004, published 2008)

The compounds below were run against T1, memapsin 2 (Cricetulus griseus, UniProt G3IAK4) (assay: Cellular Aβ IC50 determination (Aβ40 sandwich ELISA)). Conditions: Chinese hamster ovary cells over-expressing human APP695 with London and Swedish mutations, 24 h.
T1 construct: endogenous in cells; host or cells: Chinese hamster ovary cells over-expressing human APP695 (London + Swedish)
T1 sequence (G3IAK4 22-501): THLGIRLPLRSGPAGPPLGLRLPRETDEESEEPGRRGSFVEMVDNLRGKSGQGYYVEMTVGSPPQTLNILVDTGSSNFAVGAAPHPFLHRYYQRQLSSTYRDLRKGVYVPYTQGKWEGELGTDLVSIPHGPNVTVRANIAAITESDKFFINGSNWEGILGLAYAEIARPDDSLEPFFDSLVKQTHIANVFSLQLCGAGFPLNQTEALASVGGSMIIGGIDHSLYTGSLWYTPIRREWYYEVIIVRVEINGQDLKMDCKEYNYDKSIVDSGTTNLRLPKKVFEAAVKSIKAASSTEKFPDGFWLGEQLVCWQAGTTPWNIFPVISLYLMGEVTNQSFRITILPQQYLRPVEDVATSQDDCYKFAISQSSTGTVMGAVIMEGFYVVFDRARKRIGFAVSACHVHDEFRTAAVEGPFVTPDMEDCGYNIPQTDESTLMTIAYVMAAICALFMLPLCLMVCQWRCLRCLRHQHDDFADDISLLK
Type: cell-based
Procedure: The potency of compounds against memapsin 2 activity was determined in a cellular assay of Aβ production. […] Chinese hamster ovary cells that over-express human APP695 with the London and Swedish mutations were seeded in multi-well plates at 10% confluency. Compounds were dissolved in DMSO to concentrations near 1 mM, and diluted into culture media to a final concentration near 4 μM (final 0.4% DMSO). Compounds were diluted serially and applied to cells in multi-well plates 48 h after seeding. Incubation was continued in 5% CO2 at 37 degrees C. for 24 h. Aliquots were removed and assayed for Aβ40 content using a sandwich ELISA (BioSource International). Amount of Aβ40 over the range of concentration of compounds, relative to control incubations, were fit to a 4-parameter IC50 model.

Row | Structure (SMILES) | IC50 [µM]
1 | CCC(Cn1nc(C)cc1C)C(=O)NC(CNC(=O)OC(C)(C)C)C(=O)NC(CC(C)C)C(O)CC(C)C(=O)NC(C(=O)NCc1nc(C)cs1)C(C)C (centres unmarked) [tert-butyl 2-(2-((3,5-dimethyl-1H-pyrazol-1-yl)methyl)butanamido)-3-(5-hydroxy-2,7-dimethyl-8-(3-methyl-1-((4-methylthiazol-2-yl)methylamino)-1-oxobutan-2-ylamino)-8-oxooctan-4-ylamino)-3-oxopropylcarbamate] | < 6
2 | Cc1cc(C)n(CC(N=[N+]=[N-])C(=O)NC(CNC(=O)OC(C)(C)C)C(=O)NC(CC(C)C)C(O)CC(C)C(=O)NC(C(=O)NCC(C)C)C(C)C)n1 (centres unmarked) [tert-butyl 2-(2-azido-3-(3,5-dimethyl-1H-pyrazol-1-yl)propanamido)-3-(5-hydroxy-8-(1-(isobutylamino)-3-methyl-1-oxobutan-2-ylamino)-2,7-dimethyl-8-oxooctan-4-ylamino)-3-oxopropylcarbamate] | 6 to 100
3 | Cc1nc(CC(C)C(=O)NC(CNC(=O)OC(C)(C)C)C(=O)NC(CC(C)C)C(O)CC(C)C(=O)NC(C(=O)NCC(C)C)C(C)C)c(C)o1 (centres unmarked) [tert-butyl 2-(3-(2,5-dimethyloxazol-4-yl)-2-methylpropanamido)-3-(5-hydroxy-8-(1-(isobutylamino)-3-methyl-1-oxobutan-2-ylamino)-2,7-dimethyl-8-oxooctan-4-ylamino)-3-oxopropylcarbamate] | < 6
4 | COC(Cn1nc(C)cc1C)C(=O)NC(CNC(=O)OC(C)(C)C)C(=O)NC(CC(C)C)C(O)CC(C)C(=O)NC(C(=O)NCC(C)C)C(C)C (centres unmarked) [tert-butyl 2-(3-(3,5-dimethyl-1H-pyrazol-1-yl)-2-methoxypropanamido)-3-(5-hydroxy-8-(1-(isobutylamino)-3-methyl-1-oxobutan-2-ylamino)-2,7-dimethyl-8-oxooctan-4-ylamino)-3-oxopropylcarbamate] | > 100
5 | Cc1csc(CC(C)C(=O)NC(CNC(=O)OC(C)(C)C)C(=O)NC(Cc2cc(F)cc(F)c2)C(O)CC(C)C(=O)NC(C(=O)NCC(C)C)C(C)C)n1 (centres unmarked) [tert-butyl 3-(1-(3,5-difluorophenyl)-3-hydroxy-6-(1-(isobutylamino)-3-methyl-1-oxobutan-2-ylamino)-5-methyl-6-oxohexan-2-ylamino)-2-(2-methyl-3-(4-methylthiazol-2-yl)propanamido)-3-oxopropylcarbamate] | 6 to 100
6 | Cc1csc(CC(C)C(=O)NC(CNC(=O)OC(C)(C)C)C(=O)NC(Cc2ccccc2)C(O)CC(C)C(=O)NC(C(=O)NCC(C)C)C(C)C)n1 (centres unmarked) [tert-butyl 3-(3-hydroxy-6-(1-(isobutylamino)-3-methyl-1-oxobutan-2-ylamino)-5-methyl-6-oxo-1-phenylhexan-2-ylamino)-2-(2-methyl-3-(4-methylthiazol-2-yl)propanamido)-3-oxopropylcarbamate] | 6 to 100
7 | Cc1csc(CC(C)C(=O)NC(CNC(=O)OC(C)(C)C)C(=O)NC(CC(C)C)C(O)CC(C)C(=O)NC(C(=O)NCc2ccncc2)C(C)C)n1 (centres unmarked) [tert-butyl 3-(5-hydroxy-2,7-dimethyl-8-(3-methyl-1-oxo-1-(pyridin-4-ylmethylamino)butan-2-ylamino)-8-oxooctan-4-ylamino)-2-(2-methyl-3-(4-methylthiazol-2-yl)propanamido)-3-oxopropylcarbamate] | < 6
8 | CCC(CC(O)C(CC(C)C)NC(=O)C(CNC(=O)OC(C)(C)C)NC(=O)C(C)Cc1nc(C)cs1)C(=O)NC(C(=O)NCC(C)C)C(C)C (centres unmarked) [tert-butyl 3-(5-hydroxy-7-(1-(isobutylamino)-3-methyl-1-oxobutan-2-ylcarbamoyl)-2-methylnonan-4-ylamino)-2-(2-methyl-3-(4-methylthiazol-2-yl)propanamido)-3-oxopropylcarbamate] | < 6
9 | CCC(Cc1nc(C)cs1)C(=O)NC(CNC(=O)OC(C)(C)C)C(=O)NC(CC(C)C)C(O)CC(C)C(=O)NC(C(=O)NCC(C)C)C(C)C (centres unmarked) [tert-butyl 3-(5-hydroxy-8-(1-(isobutylamino)-3-methyl-1-oxobutan-2-ylamino)-2,7-dimethyl-8-oxooctan-4-ylamino)-2-(2-((4-methylthiazol-2-yl)methyl)butanamido)-3-oxopropylcarbamate] | < 6
10 | Cc1csc(CC(C)C(=O)NC(CNC(=O)OC(C)(C)C)C(=O)NC(CC(C)C)C(O)CC(C)C(=O)NC(C(=O)NCC(C)C)C(C)C)n1 (centres unmarked) [tert-butyl 3-(5-hydroxy-8-(1-(isobutylamino)-3-methyl-1-oxobutan-2-ylamino)-2,7-dimethyl-8-oxooctan-4-ylamino)-2-(2-methyl-3-(4-methylthiazol-2-yl)propanamido)-3-oxopropylcarbamate] | < 6
11 | Cc1csc(CC(C)C(=O)NC(CNC(=O)OC(C)(C)C)C(=O)NC(CC(C)C)C(O)CC(C)C(=O)NC(C(=O)NN(C)C)C(C)C)n1 (centres unmarked) [tert-butyl 3-(8-(1-(2,2-dimethylhydrazinyl)-3-methyl-1-oxobutan-2-ylamino)-5-hydroxy-2,7-dimethyl-8-oxooctan-4-ylamino)-2-(2-methyl-3-(4-methylthiazol-2-yl)propanamido)-3-oxopropylcarbamate] | < 6
12 | Cc1cc(C)n(CC(C)C(=O)NC(CNC(=O)OC2CCOC2)C(=O)NC(CC(C)C)C(O)CC(C)C(=O)NC(C(=O)NCC(C)C)C(C)C)n1 (centres unmarked) [tetrahydrofuran-3-yl 2-(3-(3,5-dimethyl-1H-pyrazol-1-yl)-2-methylpropanamido)-3-(5-hydroxy-8-(1-(isobutylamino)-3-methyl-1-oxobutan-2-ylamino)-2,7-dimethyl-8-oxooctan-4-ylamino)-3-oxopropylcarbamate] | 6 to 100
13 | Cc1csc(CC(C)C(=O)NC(CNC(=O)OC2CCOC2)C(=O)NC(CC(C)C)C(O)CC(C)C(=O)NC(C(=O)NCC(C)C)C(C)C)n1 (centres unmarked) [tetrahydrofuran-3-yl 3-(5-hydroxy-8-(1-(isobutylamino)-3-methyl-1-oxobutan-2-ylamino)-2,7-dimethyl-8-oxooctan-4-ylamino)-2-(2-methyl-3-(4-methylthiazol-2-yl)propanamido)-3-oxopropylcarbamate] | < 6

What follows are compounds tested against memapsin 2 (Homo sapiens, UniProt P56817) (assay: Inhibition of memapsin 2 beta-secretase activity toward fluorogenic substrate FS-2). Conditions: pH 4, 37° C., 20 minutes pre-incubation, fluorogenic substrate FS-2, tight-binding model; read-out: M2 Ki.
Chain of memapsin 2 (Homo sapiens, UniProt P56817) (P56817 46-501): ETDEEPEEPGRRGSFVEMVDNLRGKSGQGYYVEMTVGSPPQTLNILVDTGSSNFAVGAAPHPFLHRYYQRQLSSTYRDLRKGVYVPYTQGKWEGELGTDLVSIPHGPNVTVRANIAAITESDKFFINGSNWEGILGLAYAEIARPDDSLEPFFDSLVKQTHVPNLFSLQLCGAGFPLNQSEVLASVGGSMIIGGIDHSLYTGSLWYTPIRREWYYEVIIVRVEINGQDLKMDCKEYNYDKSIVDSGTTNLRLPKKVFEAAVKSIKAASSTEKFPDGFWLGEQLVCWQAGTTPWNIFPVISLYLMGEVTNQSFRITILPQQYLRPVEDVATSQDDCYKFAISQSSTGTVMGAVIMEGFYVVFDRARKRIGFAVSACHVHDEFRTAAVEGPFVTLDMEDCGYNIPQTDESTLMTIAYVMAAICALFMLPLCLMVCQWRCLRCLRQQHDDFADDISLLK
Type: biochemical
Procedure: Potency of compounds were determined by measurement of their inhibition of memapsin 2 activity toward a fluorescent substrate. […] Briefly, assays were performed at pH 4, 37° C., by pre-incubation of memapsin 2 enzyme with compound for 20 minutes. Activity measure was initiated by addition of a fluorogenic substrate FS-2 (Bachem Americas, Torrance, Calif.). Fluorescent signal increase over time was measured as a rate of hydrolysis of the peptide substrate.

Row | Structure (SMILES) | Ki [µM]
14 | CCC(Cn1nc(C)cc1C)C(=O)NC(CNC(=O)OC(C)(C)C)C(=O)NC(CC(C)C)C(O)CC(C)C(=O)NC(C(=O)NCc1nc(C)cs1)C(C)C (centres unmarked) [tert-butyl 2-(2-((3,5-dimethyl-1H-pyrazol-1-yl)methyl)butanamido)-3-(5-hydroxy-2,7-dimethyl-8-(3-methyl-1-((4-methylthiazol-2-yl)methylamino)-1-oxobutan-2-ylamino)-8-oxooctan-4-ylamino)-3-oxopropylcarbamate] | < 0.1
